This note sets out measurements from patent US10100019B2.

The test system of series [1] is H2228 cells. Kind of series: cells. Particulars: Homo sapiens, NCI-H2228, 72 h, read-out: Cytotoxicity H2228 (GI50 μM), H2228 cells, three days, SRB.
Series [2] deals with H2228 cells. Particulars: human, 3 days.
For the next series, the system named is H3122 cells. Kind of series: Cytotoxicity in non-small cell lung cancer cell line H3122 (SRB). Type of series: cell-based, human. Particulars: Homo sapiens, NCI-H3122, 72 h, H3122 cells, three days, SRB.

Read-outs that look alike come from different tables or passages of the source. Where only a bound is given, the exact number is not on record here.

The term GI50 denotes the concentration that inhibits growth by half. Regarding `COc1ccc(CCN(CCO)CCO)cc1Nc1ncc(Cl)c(Nc2ccccc2S(=O)(=O)C(C)C)n1` [Example 39, 2,2′-(3-(5-chloro-4-(2-(isopropylsulfonyl)phenylamino)pyrimidine-2-ylamino)-4-methoxyphenethylazeindiyl)diethanol], the values for the GI50 in the series on H2228 cells [1], in the series on H2228 cells [2] and in the series on H3122 cells were not above 1 µM, 870 nM and 0.93 µM, respectively.
